Molecular target: T1, Cytochrome P450 1A2 (Homo sapiens, UniProt P05177)
T1 sequence (P05177 whole entry): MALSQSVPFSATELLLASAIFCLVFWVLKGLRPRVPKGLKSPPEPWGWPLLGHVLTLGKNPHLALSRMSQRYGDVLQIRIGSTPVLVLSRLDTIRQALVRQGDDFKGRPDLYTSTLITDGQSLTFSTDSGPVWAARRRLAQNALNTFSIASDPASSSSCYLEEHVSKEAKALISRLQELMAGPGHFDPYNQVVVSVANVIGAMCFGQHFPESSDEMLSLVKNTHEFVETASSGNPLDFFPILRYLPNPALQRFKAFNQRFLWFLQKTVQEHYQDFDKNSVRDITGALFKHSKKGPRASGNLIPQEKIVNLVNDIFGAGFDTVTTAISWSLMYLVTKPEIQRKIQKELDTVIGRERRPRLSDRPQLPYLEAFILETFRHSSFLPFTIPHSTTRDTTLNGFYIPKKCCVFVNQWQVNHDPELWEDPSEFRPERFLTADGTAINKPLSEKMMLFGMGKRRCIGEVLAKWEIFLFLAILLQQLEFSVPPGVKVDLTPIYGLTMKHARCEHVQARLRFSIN
Experiment: Inhibition of CYP Enzyme Activity In Vitro
Protocol: The ability of the tested compounds to inhibit a panel of CYP enzymes in vitro was assessed using a series of human liver microsome assays. Half-maximal inhibitory concentration (IC50) was calculated for compounds demonstrating mean inhibition greater than 50% compared to a reference inhibitor.

IC50: 240 nM
Structure (SMILES): COc1c2ccoc2cc2oc(C)cc(=O)c12 [US11396516, Example visnagin]

Source: BindingDB's records for patent US11396516 (The General Hospital Corporation, 2022)
